From patent US20080051418A1, “Arylalkanoic Acid Derivative” (priority 2004, published 2008) come the findings set out here.

`COCCOc1ccc(CCCOc2cc(CCC(=O)O)n(C)n2)c(Oc2ncc(C(F)(F)F)cc2Cl)c1` [Example 148, 3-(3-{3-[2-{[3-chloro-5-(trifluoromethyl)pyridin-2-yl]oxy}-4-(2-methoxyethoxy)phenyl]propoxy}-1-methyl-1H-pyrazol-5-yl)propanoic acid] displayed a melting point of 114 to 115 °C.

On to `CC(C)Oc1cc(Oc2ccc(C(F)(F)F)cn2)ccc1CCCOc1cc(CCC(=O)O)n(-c2ccccc2)n1` [Example 151, 3-{3-[3-(2-isopropoxy-4-{[5-(trifluoromethyl)pyridin-2-yl]oxy}phenyl)propoxy]-1-phenyl-1H-pyrazol-5-yl}propanoic acid], for which the melting point is 129.5 to 130.5 °C.

In turn, `CC(C)Oc1cc(Oc2ccc(C(F)(F)F)cn2)ccc1CCCOc1cc(CCC(=O)O)n(C)n1` [Example 152, 3-{3-[3-(2-isopropoxy-4-{[5-(trifluoromethyl)pyridin-2-yl]oxy}phenyl)propoxy]-1-methyl-1H-pyrazol-5-yl}propanoic acid] came in with a melting point of 128 to 130 °C.

Compound `COCCOc1cc(Oc2ccc(C(F)(F)F)cn2)ccc1CCCOc1cc(CCC(=O)O)n(-c2ccccc2)n1` [Example 153, 3-{3-[3-(2-(2-methoxyethoxy)-4-{[5-(trifluoromethyl)pyridin-2-yl]oxy}phenyl)propoxy]-1-phenyl-1H-pyrazol-5-yl}propanoic acid] registered a melting point of 83 to 85 °C.

Take `COCCOc1cc(Oc2ccc(C(F)(F)F)cn2)ccc1CCCOc1cc(CCC(=O)O)n(C)n1` [Example 154, 3-{3-[3-(2-(2-methoxyethoxy)-4-{[5-(trifluoromethyl)pyridin-2-yl]oxy}phenyl)propoxy]-1-methyl-1H-pyrazol-5-yl}propanoic acid]: the melting point lay in the range of 109.5 to 110.5 °C.

Compound `CC(C)Oc1ccc(CCCCOc2cc(CCC(=O)O)n(C)n2)c(Oc2ncc(C(F)(F)F)cc2Cl)c1` [Example 155, 3-{3-[4-(2-{[3-chloro-5-(trifluoromethyl)pyridin-2-yl]oxy}-4-isopropoxyphenyl)butoxy]-1-methyl-1H-pyrazol-5-yl}propanoic acid] had a melting point of 156 to 157 °C.

On to `CC(C)Cn1nc(OCCCCc2ccc(OC(C)C)cc2Oc2ncc(C(F)(F)F)cc2Cl)cc1CCC(=O)O` [Example 157, 3-{3-[4-(2-{[3-chloro-5-(trifluoromethyl)pyridin-2-yl]oxy}-4-isopropoxyphenyl)butoxy]-1-isobutyl-1H-pyrazol-5-yl}propanoic acid], for which the melting point fell in the range of 122 to 123 °C.

Turning to `CC(C)Oc1ccc(CCCCOc2cc(CCC(=O)O)n(C(C)C)n2)c(Oc2ncc(C(F)(F)F)cc2Cl)c1` [Example 159, 3-{3-[4-(2-{[3-chloro-5-(trifluoromethyl)pyridin-2-yl]oxy}-4-isopropoxyphenyl)butoxy]-1-isopropyl-1H-pyrazol-5-yl}propanoic acid], the melting point lay within 99.5 to 100.5 °C.

`CC(C)Oc1ccc(CCCOc2cc(CCC(=O)O)n(C)n2)c(OCc2ccc(Cl)cc2Cl)c1` [Example 161, 3-[3-(3-{2-[(2,4-dichlorobenzyl)oxy]-4-isopropoxyphenyl}propoxy) 1-methyl-1H-pyrazol-5-yl]propanoic acid] yielded a melting point of 125 to 127 °C.

Consider `CC(C)Cn1nc(OCCCc2ccc(OC(C)C)cc2OCc2ccc(Cl)cc2Cl)cc1CCC(=O)O` [Example 162, 3-[3-(3-{2-[(2,4-dichlorobenzyl)oxy]-4-isopropoxyphenyl}propoxy) -1-isobutyl-1H-pyrazol-5-yl]propanoic acid], for which the melting point lay within 133 to 134 °C.

On to `CCn1nc(OCCCc2ccc(OC(C)C)cc2OCc2ccc(Cl)cc2Cl)cc1CCC(=O)O` [Example 163, 3-[3-(3-{2-[(2,4-dichlorobenzyl)oxy]-4-isopropoxyphenyl}propoxy)-1-ethyl-1H-pyrazol-5-yl]propanoic acid], for which the melting point was 110 to 111 °C.

The compound `COCCOc1ccc(CCCOc2cc(CCC(=O)O)n(C)n2)c(OCc2ccc(Cl)cc2Cl)c1` [Example 164, 3-(3-{3-[2-[(2,4-dichlorobenzyl)oxy]-4-(2-methoxyethoxy)phenyl]propoxy}-1-methyl-1H-pyrazol-5-yl)propanoic acid] had a melting point of 128.5 to 129.5 °C.

`CCn1nc(OCCCc2ccc(OCCOC)cc2OCc2ccc(Cl)cc2Cl)cc1CCC(=O)O` [Example 165, 3-(3-{3-{2-[(2,4-dichlorobenzyl)oxy]-4-(2-methoxyethoxy)phenyl}propoxy}-1-ethyl-1H-pyrazol-5-yl)propanoic acid]: the melting point was 114 to 116 °C.

Take `CC(C)Oc1ccc(CCCOc2cc(CCC(=O)O)n(C)n2)c(OCc2ccc(C(F)(F)F)cc2)c1` [Example 167, 3-{3-[3-(4-isopropoxy-2-{[4-(trifluoromethyl)benzyl]oxy}phenyl)propoxy]-1-methyl-1H-pyrazol-5-yl}propanoic acid]: the melting point lay in the range of 88 to 89 °C.

In the case of `CCn1nc(OCCCc2ccc(OC(C)C)cc2OCc2ccc(C(F)(F)F)cc2)cc1CCC(=O)O` [Example 168, 3-{1-ethyl-3-[3-(4-isopropoxy-2-{[4-(trifluoromethyl)benzyl]oxy}phenyl)propoxy]-1H-pyrazol-5-yl}propanoic acid], the melting point fell in the range of 75 to 76 °C.

With `COCCOc1ccc(CCCOc2cc(CCC(=O)O)n(C)n2)c(OCc2ccc(C(F)(F)F)cc2)c1` [Example 169, 3-{3-[3-(4-(2-methoxyethoxy)-2-{[4-(trifluoromethyl)benzyl]oxy}phenyl)propoxy]-1-methyl-1H-pyrazol-5-yl}propanoic acid], the melting point was 110 to 111 °C.

For `CCn1nc(OCCCc2ccc(OCCOC)cc2OCc2ccc(C(F)(F)F)cc2)cc1CCC(=O)O` [Example 170, 3-{1-ethyl-3-[3-(4-(2-methoxyethoxy)-2-{[4-(trifluoromethyl)benzyl]oxy}phenyl)propoxy]-1H-pyrazol-5-yl}propanoic acid], the melting point fell in the range of 112 to 113 °C.

The compound `CC(C)Oc1ccc(CCCOc2cc(CCC(=O)O)n(-c3ccccc3)n2)c(Oc2ccc(Cl)cc2Cl)n1` [Example 171, 3-(3-{3-[2-(2,4-dichlorophenoxy)-6-isopropoxypyridin-3-yl]propoxy}-1-phenyl-1H-pyrazol-5-yl)propanoic acid] came in with a melting point of 60 to 62 °C.

Compound `CC(C)Oc1ccc(CCCOc2cc(CCC(=O)O)n(-c3ccccc3)n2)c(Oc2ccc(C(F)(F)F)cn2)c1` [Example 172, 3-{3-[3-(4-isopropoxy-2-{[5-(trifluoromethyl)pyridin-2-yl]oxy}phenyl)propoxy]-1-phenyl-1H-pyrazol-5-yl}propanoic acid] registered a melting point of 80 to 82 °C.

For `CC(C)Oc1ccc(CCCOc2nn(C)cc2CC(=O)O)c(OCc2ccc(Cl)cc2Cl)c1` [Example 174, [3-(3-{2-[(2,4-dichlorobenzyl)oxy]-4-isopropoxyphenyl}propoxy)-1-methyl-1H-pyrazol-4-yl]acetic acid], the melting point fell in the range of 102 to 103 °C.

For `CC(C)Oc1ccc(CCCOc2nn(Cc3ccccc3)cc2CC(=O)O)c(OCc2ccc(Cl)cc2Cl)c1` [Example 175, [1-benzyl-3-(3-{2-[(2,4-dichlorobenzyl)oxy]-4-isopropoxyphenyl}propoxy)-1H-pyrazol-4-yl]acetic acid], the melting point fell in the range of 103 to 104 °C.

For `CCOc1nn(Cc2ccc(Cl)cc2Cl)cc1CCCOc1cc(CCC(=O)O)n(Cc2ccccc2)n1` [Example 182, 3-(1-benzyl-3-{3-[1-(2,4-dichlorobenzyl)-3-ethoxy-1H-pyrazol-4-yl]propoxy}-1H-pyrazol-5-yl)propanoic acid], the melting point lay in the range of 84 to 85 °C.

Regarding `CCOc1nn(Cc2ccc(Cl)cc2Cl)cc1CCCOc1cc(CCC(=O)O)n(-c2ccccc2)n1` [Example 183, 3-(3-{3-[1-(2,4-dichlorobenzyl)-3-ethoxy-1H-pyrazol-4-yl]propoxy}-1-phenyl-1H-pyrazol-5-yl)propanoic acid], the melting point is 132 to 133 °C.

Turning to `CCc1cccc(CC(=O)O)c1OCCn1cc(C(=O)NCc2ccc(C(F)(F)F)cc2)c(OC(C)C)n1` [Example 184, (3-ethyl-2-{2-[3-isopropoxy-4-({[4-(trifluoromethyl)benzyl]amino}carbonyl)-1H-pyrazol-1-yl]ethoxy}phenyl)acetic acid], the melting point was 110 to 111 °C.

`CCc1cnn(CC(=O)O)c1OCCn1cc(C(=O)NCc2ccc(C(F)(F)F)cc2)c(OC(C)C)n1` [Example 185, (4-ethyl-5-{2-[3-isopropoxy-4-({[4-(trifluoromethyl)benzyl]amino}carbonyl)-1H-pyrazol-1-yl]ethoxy}-1H-pyrazol-1-yl)acetic acid] came in with a melting point of 183 to 184 °C.

For `CCc1cccc(CC(=O)O)c1OCCCn1cc(C(=O)NCc2ccc(C(F)(F)F)cc2)c(OC(C)C)n1` [Example 186, (3-ethyl-2-{3-[3-isopropoxy-4-({[4-(trifluoromethyl)benzyl]amino}carbonyl)-1H-pyrazol-1-yl]propoxy}phenyl)acetic acid], the melting point was in the range of 107.5 to 108.5 °C.

In turn, `CCc1cccc(CC(=O)O)c1OCCn1cc(CCOc2ncc(C(F)(F)F)cc2Cl)c(OC(C)C)n1` [Example 188, (2-{2-[4-(2-{[3-chloro-5-(trifluoromethyl)pyridin-2-yl]oxy}ethyl)-3-isopropoxy-1H-pyrazol-1-yl]ethoxy}-3-ethylphenyl)acetic acid] yielded a melting point of 76.5 to 77.5 °C.

On to `CC(C)c1nn(Cc2ccc(Cl)cc2Cl)cc1CCCOc1cc(CCC(=O)O)n(-c2ccccc2)n1` [Example 190, 3-(3-{3-[1-(2,4-dichlorobenzyl)-3-isopropyl-1H-pyrazol-4-yl]propoxy}-1-phenyl-1H-pyrazol-5-yl)propanoic acid], for which the melting point lay within 105 to 107 °C.

As to `CC(C)Oc1cc(CCCOc2cc(CCC(=O)O)n(Cc3ccccc3)n2)n(Cc2ccc(Cl)cc2Cl)n1` [Example 191, 3-(1-benzyl-3-{3-[1-(2,4-dichlorobenzyl) -3-isopropoxy-1H-pyrazol-5-yl]propoxy}-1H-pyrazol-5-yl)propanoic acid], the melting point lay within 123 to 126 °C.

In turn, `CC(C)Oc1cc(CCCOc2cc(CCC(=O)O)n(-c3ccccc3)n2)n(Cc2ccc(Cl)cc2Cl)n1` [Example 192, 3-(3-{3-[1-(2,4-dichlorobenzyl)-3-isopropoxy-1H-pyrazol-5-yl]propoxy}-1-phenyl-1H-pyrazol-5-yl)propanoic acid] registered a melting point of 145.5 to 147.5 °C.

Broadly, the melting point is the temperature of the solid-liquid transition.
